Test results as given in patent US7294189B2, “Wax emulsion preservative compositions and method of manufacture” (Hexion Specialty Chemicals, Inc., priority 2002, dated 2007).
Entries after “also recorded” stand apart in the source; their conditions may differ.

What was measured:
[1] = test system: mold cultures; experiment: ASTM D3273 four week mold resistance test of gypsum product made with wax emulsion containing thiabendazole; conditions: 0.2% thiabendazole post-added to wax emulsion; closed chamber with potting soil and mold cultures, about 90° F., relative humidity 95% to 98%; first weeks of the test
Protocol: A wax emulsion formulation was prepared with the following components: G Wax (a paraffin wax) 33%, Montan wax 3.3%, alkyl phenol 0.5%, Disal 0.5%, potassium hydroxide 0.75%, ammonium hepta molybdonate 0.01%, starch 0.09%, polyfon H (lignosulfonic acid, sodium salt) 0.5%, water 61.35%. To this wax emulsion was post-added 0.2% thiabendazole, commercially available from Supreme Chemical of Cumming, Ga. under the trade designation MC-2. The wax emulsion was used to prepare a gypsum product. The resulting gypsum product was tested according to ASTM D3273. During this four week test, a sample of the subject material, such as a gypsum board, is placed in a closed chamber along with potting soil and mold cultures at a constant temperature of about 90° F. (32.2° C.) and relative humidity of 95% to 98%. The condition of the test sample is monitored weekly to determine the extent, if any, of mold growth.

[2] = test system: biological growth; experiment: Biological growth on particle board coupons (urea-formaldehyde binder) made with test emulsions, placed in various environments; conditions: emulsions with 1% or 2% thiabendazole by weight of the wax; emulsion 0.4% solids by weight of furnish; soaked and non-soaked coupons; constant humidity, rooftop, warehouse, laboratory; after six weeks (control coupons showed growth after first week)
Protocol: In other tests, test emulsions as described above was used to prepare sample particle board coupons comprising a urea-formaldehyde binder. Some test emulsions contained 1% thiabendazole, others 2%, by weight of the wax in the emulsions. The emulsion was added to the furnish from which the coupons were formed in an amount of 0.4% solids, by weight of the furnish. Some of the coupons were soaked in water for twenty-four hours before testing. For the test, various soaked and non-soaked coupons were placed in various environments including constant humidity conditions (72° F. (22.2° C.), 72% relative humidity (RH)), outdoor rooftop environmental conditions (exposed to air but shielded from direct impingement by precipitation); and indoors in an uncontrolled warehouse and in a laboratory environment, beside a water bath. Control coupons prepared and treated similarly were also place in these environments.

c1ccc2[nH]c(-c3cscn3)nc2c1 [thiabendazole, 2-(4′-thiazolyl) benzimidazole]
biological (mold) growth on gypsum product [1]: effective in inhibiting the growth of biological agents on gypsum board; also recorded: no biological growth
visible biological growth on particle board coupons [2]: none of the sample coupons made with thiabendazole had any visible growth
